# Measured values taken from paper PMC9814781, “Structure-based design of a dual-warhead covalent inhibitor of FGFR4” (Communications Chemistry, 2022).
# Columns and labels:
# Experiment in all cases: Kinase selectivity profiling
# FER = FER (Homo sapiens, UniProt P16591)
# TRKC(NTRK3) = TRKC(NTRK3) (Homo sapiens, UniProt Q16288)
# PAK4 = PAK4 (Homo sapiens, UniProt O96013)
# FGFR1 = FGFR1 (Homo sapiens, UniProt P11362)
# AKT1 = AKT1 (Homo sapiens, UniProt P31749)
# PAK1 = PAK1 (Homo sapiens, UniProt Q13153)
# DAPK1 = DAPK1 (Homo sapiens, UniProt P53355)
# p38β = p38β (Homo sapiens, UniProt Q15759)
# RSK2 = RSK2 (Homo sapiens, UniProt P51812)
# AMPKα1/β1/γ1 = AMPKα1/β1/γ1 (Homo sapiens, UniProt Q13131)
# PYK2 = PYK2 (Homo sapiens, UniProt Q14289)
# CLK1 = CLK1 (Homo sapiens, UniProt P49759)
# MAP4K2 = MAP4K2 (Homo sapiens, UniProt Q12851)
# PAK3 = PAK3 (Homo sapiens, UniProt O75914)
# DYRK1B = DYRK1B (Homo sapiens, UniProt Q9Y463)
# JNK2 = JNK2 (Homo sapiens, UniProt P45984)
# DYRK2 = DYRK2 (Homo sapiens, UniProt Q92630)
# MAPKAPK2 = MAPKAPK2 (Homo sapiens, UniProt P49137)
# FGR = FGR (Homo sapiens, UniProt P09769)
# CK1δ = CK1δ (Homo sapiens, UniProt P48730)
# EPHA3 = EPHA3 (Homo sapiens, UniProt P29320)
# HPK1 = HPK1 (Homo sapiens, UniProt Q92918)
# RSK1 = RSK1 (Homo sapiens, UniProt Q15418)
# CHK2 = CHK2 (Homo sapiens, UniProt O96017)
# MUSK = MUSK (Homo sapiens, UniProt O15146)
# RON = RON (Homo sapiens, UniProt Q04912)
# CK1ε = CK1ε (Homo sapiens, UniProt P49674)
# CK1γ2 = CK1γ2 (Homo sapiens, UniProt P78368)
# TYK2 = TYK2 (Homo sapiens, UniProt P29597)
# KIT[D816V] = KIT[D816V] (Homo sapiens, UniProt P10721, D816V)
# PDGFRβ = PDGFRβ (Homo sapiens, UniProt P09619)
# AXL = AXL (Homo sapiens, UniProt P30530)
# FES = FES (Homo sapiens, UniProt P07332)
# CK1γ3 = CK1γ3 (Homo sapiens, UniProt Q9Y6M4)
# FYNa = FYNa (Homo sapiens, UniProt P06241)
# PLK2 = PLK2 (Homo sapiens, UniProt Q9NYY3)
# TYK2, sequence (P29597 whole entry): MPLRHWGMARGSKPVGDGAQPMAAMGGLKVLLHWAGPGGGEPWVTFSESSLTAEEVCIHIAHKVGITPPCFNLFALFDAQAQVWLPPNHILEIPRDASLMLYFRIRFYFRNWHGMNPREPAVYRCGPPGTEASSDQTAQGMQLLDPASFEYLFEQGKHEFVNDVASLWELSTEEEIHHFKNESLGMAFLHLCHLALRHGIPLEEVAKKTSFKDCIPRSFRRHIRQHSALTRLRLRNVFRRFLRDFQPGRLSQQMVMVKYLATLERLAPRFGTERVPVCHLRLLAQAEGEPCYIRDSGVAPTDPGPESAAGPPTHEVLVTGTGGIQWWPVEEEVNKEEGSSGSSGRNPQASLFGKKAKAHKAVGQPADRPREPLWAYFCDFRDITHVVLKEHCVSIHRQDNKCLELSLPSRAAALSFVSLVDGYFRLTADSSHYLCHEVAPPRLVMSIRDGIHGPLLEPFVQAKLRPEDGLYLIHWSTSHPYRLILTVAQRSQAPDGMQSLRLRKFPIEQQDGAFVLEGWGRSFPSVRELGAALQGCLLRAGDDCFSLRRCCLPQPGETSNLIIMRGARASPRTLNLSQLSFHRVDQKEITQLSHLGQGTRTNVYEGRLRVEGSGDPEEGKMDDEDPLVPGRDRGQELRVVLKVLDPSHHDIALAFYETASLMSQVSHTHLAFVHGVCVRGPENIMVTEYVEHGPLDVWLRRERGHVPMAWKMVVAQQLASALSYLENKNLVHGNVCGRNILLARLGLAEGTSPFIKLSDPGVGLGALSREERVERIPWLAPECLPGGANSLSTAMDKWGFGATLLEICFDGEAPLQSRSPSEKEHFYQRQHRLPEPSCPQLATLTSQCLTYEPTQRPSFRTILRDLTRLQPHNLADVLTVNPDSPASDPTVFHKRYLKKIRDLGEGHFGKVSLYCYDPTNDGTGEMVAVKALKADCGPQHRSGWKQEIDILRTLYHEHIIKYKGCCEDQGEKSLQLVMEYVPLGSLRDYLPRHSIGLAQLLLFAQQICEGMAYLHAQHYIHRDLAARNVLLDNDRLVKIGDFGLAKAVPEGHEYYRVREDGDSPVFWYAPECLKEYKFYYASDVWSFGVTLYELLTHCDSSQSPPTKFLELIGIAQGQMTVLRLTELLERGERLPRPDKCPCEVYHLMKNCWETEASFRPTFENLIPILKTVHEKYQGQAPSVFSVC
# AMPKα1/β1/γ1, sequence (Q13131 whole entry): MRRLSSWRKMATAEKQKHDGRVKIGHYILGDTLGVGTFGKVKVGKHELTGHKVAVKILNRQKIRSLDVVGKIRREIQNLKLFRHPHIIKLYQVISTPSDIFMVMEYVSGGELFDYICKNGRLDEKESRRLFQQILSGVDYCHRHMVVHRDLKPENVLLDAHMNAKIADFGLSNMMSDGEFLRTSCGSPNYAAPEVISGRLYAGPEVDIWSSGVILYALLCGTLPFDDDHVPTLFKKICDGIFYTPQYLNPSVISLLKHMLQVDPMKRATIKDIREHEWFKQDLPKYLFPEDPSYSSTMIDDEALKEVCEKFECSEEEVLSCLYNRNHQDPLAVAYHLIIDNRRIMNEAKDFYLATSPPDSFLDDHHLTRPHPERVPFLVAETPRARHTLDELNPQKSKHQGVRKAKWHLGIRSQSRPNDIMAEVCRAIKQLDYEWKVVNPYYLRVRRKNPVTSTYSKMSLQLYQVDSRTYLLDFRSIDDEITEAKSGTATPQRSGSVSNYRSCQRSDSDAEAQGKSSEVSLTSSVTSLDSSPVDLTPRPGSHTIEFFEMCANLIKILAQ
# AMPKα1/β1/γ1, sequence (Q9Y478 whole entry partner): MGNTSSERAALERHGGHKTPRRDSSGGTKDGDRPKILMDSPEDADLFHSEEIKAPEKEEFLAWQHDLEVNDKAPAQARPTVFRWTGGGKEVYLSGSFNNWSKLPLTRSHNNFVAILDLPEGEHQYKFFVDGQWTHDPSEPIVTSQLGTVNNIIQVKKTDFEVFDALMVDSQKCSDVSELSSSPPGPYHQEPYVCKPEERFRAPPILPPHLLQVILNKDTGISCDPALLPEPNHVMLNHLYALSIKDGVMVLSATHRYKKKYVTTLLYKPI
# AMPKα1/β1/γ1, sequence (P54619 whole entry partner): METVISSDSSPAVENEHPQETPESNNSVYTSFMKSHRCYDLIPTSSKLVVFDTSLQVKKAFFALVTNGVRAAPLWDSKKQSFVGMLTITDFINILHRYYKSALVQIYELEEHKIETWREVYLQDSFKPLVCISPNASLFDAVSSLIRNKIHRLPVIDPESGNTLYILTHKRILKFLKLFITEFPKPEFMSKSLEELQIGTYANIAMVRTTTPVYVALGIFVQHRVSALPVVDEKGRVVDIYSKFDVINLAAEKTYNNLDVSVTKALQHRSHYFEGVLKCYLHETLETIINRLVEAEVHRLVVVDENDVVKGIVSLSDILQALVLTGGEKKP
# PAK4, sequence (O96013 whole entry): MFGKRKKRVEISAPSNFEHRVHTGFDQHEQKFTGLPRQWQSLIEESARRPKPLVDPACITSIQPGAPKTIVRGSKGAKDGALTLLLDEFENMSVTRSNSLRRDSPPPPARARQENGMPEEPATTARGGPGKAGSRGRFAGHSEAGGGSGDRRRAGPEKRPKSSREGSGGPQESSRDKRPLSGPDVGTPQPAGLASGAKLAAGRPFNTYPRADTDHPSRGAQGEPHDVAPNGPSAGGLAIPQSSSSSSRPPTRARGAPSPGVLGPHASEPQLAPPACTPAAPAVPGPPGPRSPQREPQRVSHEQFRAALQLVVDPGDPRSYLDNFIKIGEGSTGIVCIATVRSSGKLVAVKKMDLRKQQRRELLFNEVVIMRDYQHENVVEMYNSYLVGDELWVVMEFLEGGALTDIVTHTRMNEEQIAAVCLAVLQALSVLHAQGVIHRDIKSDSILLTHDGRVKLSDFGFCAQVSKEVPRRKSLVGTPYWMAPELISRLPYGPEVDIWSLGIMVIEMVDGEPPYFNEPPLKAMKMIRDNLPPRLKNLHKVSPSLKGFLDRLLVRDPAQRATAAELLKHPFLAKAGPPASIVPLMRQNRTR
# CHK2, sequence (O96017 whole entry): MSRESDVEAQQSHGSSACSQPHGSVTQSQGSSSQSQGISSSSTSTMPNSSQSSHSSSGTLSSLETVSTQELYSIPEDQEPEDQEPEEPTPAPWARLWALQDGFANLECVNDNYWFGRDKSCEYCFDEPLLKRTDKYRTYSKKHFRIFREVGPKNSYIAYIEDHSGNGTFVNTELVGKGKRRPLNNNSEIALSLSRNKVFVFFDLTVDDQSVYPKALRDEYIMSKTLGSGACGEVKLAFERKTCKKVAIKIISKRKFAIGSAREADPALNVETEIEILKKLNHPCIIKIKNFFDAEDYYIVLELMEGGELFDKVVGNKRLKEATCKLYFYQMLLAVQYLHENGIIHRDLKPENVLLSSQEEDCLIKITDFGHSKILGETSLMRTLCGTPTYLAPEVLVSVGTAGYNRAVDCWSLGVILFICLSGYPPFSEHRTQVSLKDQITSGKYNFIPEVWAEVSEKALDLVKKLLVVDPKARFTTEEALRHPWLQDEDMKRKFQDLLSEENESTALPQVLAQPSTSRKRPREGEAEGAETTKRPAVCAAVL
# KIT[D816V], sequence (P10721 26-976 D816V): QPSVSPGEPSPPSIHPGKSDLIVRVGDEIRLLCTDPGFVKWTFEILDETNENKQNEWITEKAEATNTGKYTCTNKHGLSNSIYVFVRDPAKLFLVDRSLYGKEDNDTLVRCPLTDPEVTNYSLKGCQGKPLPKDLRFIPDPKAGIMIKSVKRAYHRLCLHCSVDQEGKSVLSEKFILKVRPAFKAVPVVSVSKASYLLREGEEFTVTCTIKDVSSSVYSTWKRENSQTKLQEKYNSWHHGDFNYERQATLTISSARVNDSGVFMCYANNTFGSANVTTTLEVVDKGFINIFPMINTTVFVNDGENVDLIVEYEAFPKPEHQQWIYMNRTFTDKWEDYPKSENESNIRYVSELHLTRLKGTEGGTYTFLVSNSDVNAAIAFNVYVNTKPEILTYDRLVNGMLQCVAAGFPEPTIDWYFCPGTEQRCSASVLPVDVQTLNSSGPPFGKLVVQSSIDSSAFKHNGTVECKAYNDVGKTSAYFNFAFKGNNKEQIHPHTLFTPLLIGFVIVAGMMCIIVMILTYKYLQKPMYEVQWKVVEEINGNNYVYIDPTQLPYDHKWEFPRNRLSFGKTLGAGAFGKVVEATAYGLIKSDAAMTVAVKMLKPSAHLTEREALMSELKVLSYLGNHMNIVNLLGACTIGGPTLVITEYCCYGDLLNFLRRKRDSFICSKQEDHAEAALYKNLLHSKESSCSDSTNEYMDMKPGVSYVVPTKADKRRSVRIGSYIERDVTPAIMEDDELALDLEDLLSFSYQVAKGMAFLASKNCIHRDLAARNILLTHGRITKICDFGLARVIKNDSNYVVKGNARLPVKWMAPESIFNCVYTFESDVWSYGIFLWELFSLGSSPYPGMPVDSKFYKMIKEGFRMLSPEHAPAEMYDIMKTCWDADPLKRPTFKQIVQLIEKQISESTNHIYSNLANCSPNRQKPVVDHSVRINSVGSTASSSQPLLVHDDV
# CK1δ, sequence (P48730 whole entry): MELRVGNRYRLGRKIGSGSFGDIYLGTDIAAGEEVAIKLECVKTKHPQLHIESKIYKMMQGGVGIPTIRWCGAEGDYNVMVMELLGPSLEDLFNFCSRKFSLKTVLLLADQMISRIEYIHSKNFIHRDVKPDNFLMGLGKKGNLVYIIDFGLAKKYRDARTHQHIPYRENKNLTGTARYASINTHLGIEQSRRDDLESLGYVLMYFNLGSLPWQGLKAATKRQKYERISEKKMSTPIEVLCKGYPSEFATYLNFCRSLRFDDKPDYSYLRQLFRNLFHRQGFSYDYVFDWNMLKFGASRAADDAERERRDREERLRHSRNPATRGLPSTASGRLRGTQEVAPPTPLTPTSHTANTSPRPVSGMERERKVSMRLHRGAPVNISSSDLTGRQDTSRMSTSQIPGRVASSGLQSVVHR
structure (smiles),measurement,setting,value
C=CC(=O)Nc1ccccc1Nc1ncc2c(n1)N(CCCN1CCN(C(=O)C=C)CC1)C(=O)N(c1cc(OC)cc(OC)c1)C2 [CXF-009],inhibition at 1 µM,FER,37.1%
same,inhibition at 1 µM,TRKC(NTRK3),8.57%
same,inhibition at 1 µM,PAK4,6.5%
same,inhibition at 1 µM,FGFR1,4.98%
same,inhibition at 1 µM,AKT1,3.98%
same,inhibition at 1 µM,PAK1,3.22%
same,inhibition at 1 µM,DAPK1,2.52%
same,inhibition at 1 µM,p38β,2.25%
same,inhibition at 1 µM,RSK2,2.24%
same,inhibition at 1 µM,AMPKα1/β1/γ1,2.23%
same,inhibition at 1 µM,PYK2,2.11%
same,inhibition at 1 µM,CLK1,1.48%
same,inhibition at 1 µM,MAP4K2,1.43%
same,inhibition at 1 µM,PAK3,0.97%
same,inhibition at 1 µM,DYRK1B,0.62%
same,inhibition at 1 µM,JNK2,0.4%
same,inhibition at 1 µM,DYRK2,0.38%
same,inhibition at 1 µM,MAPKAPK2,0.15%
same,inhibition at 1 µM,FGR,-1.1%
same,inhibition at 1 µM,CK1δ,-1.29%
same,inhibition at 1 µM,EPHA3,-1.81%
same,inhibition at 1 µM,HPK1,-2.36%
same,inhibition at 1 µM,RSK1,-2.52%
same,inhibition at 1 µM,CHK2,-3.02%
same,inhibition at 1 µM,MUSK,-3.46%
same,inhibition at 1 µM,RON,-4.53%
same,inhibition at 1 µM,CK1ε,-4.6%
same,inhibition at 1 µM,CK1γ2,-4.8%
same,inhibition at 1 µM,TYK2,-5.05%
same,inhibition at 1 µM,KIT[D816V],-6.19%
same,inhibition at 1 µM,PDGFRβ,-6.88%
same,inhibition at 1 µM,AXL,-7.53%
same,inhibition at 1 µM,FES,-7.81%
same,inhibition at 1 µM,CK1γ3,-7.86%
same,inhibition at 1 µM,FYNa,-9.44%
same,inhibition at 1 µM,PLK2,-19.5%
